Holding throughout (assay): Kinase panel enzymatic inhibition assay (Nanosyn)
Holding throughout (type): biochemical

The target in one experiment is T1, PLK4 (Homo sapiens, UniProt O00444).
T1 construct: Nanosyn (contract laboratory that ran the panel)
T1 sequence (O00444 1-970): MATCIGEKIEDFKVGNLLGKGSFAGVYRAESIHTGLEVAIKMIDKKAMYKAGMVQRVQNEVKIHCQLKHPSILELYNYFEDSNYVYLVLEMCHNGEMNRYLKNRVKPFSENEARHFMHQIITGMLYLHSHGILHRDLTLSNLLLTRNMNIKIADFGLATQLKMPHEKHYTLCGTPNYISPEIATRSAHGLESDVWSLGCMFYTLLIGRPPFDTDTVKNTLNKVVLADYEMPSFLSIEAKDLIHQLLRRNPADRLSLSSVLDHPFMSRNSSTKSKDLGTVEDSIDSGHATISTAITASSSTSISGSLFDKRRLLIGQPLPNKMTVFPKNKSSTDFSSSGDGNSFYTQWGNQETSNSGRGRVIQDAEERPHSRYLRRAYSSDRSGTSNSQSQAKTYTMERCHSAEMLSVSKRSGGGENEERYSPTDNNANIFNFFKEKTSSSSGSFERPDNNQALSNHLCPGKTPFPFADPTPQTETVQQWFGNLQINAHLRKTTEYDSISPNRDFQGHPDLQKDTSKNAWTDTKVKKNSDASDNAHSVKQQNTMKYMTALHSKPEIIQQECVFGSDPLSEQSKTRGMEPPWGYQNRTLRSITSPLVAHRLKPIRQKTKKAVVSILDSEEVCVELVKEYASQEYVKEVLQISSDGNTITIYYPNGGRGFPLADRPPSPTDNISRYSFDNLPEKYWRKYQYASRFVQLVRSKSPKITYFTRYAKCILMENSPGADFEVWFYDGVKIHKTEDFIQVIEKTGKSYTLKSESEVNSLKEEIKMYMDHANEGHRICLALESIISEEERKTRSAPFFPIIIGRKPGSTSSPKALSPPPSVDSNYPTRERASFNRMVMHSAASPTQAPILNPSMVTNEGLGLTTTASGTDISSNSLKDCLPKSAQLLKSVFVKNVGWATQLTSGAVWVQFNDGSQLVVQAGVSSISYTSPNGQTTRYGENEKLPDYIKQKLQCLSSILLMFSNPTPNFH
To be noted: ATP at Km; 30-minute pre-incubation; read-out: kinase inhibition in terms of IC50, PLK4. The protocol: (§1) The disclosed compounds were tested for activity against a panel of at least 300 kinases. Kinase panel screening was conducted by Nanosyn (Santa Clara, CA 95051) using an enzymatic inhibition assay accepted as valid by those skilled in the art (e.g., the Caliper LabChip® mobility shift assay, an ADP detection assay, or time-resolved fluorescence detection technology. Compounds were screened at a concentration of 5 μM using an ATP concentration at the Km for each of the respective kinases and a 30-minute pre-incubation time-point.
(§2) In Table 1 and 2, kinase inhibition is classified by: A=95% or greater, B=90%-94%, C=80%-89%, and D=79% and less with a compound concentration of 5 JIM. In Table 3 and 4, kinase inhibition is reported in terms of IC50 values corresponding to A=less than 500 nm, B=500 nm to less than 1 μM, C=1 μM to less than 10 μM, and D=10 μM or greater using a compound concentration of 5 μM.

A further experiment deals with T2, WEE1 (Homo sapiens, UniProt P30291).
T2 construct: purchased Nanosyn
T2 sequence (P30291 whole entry): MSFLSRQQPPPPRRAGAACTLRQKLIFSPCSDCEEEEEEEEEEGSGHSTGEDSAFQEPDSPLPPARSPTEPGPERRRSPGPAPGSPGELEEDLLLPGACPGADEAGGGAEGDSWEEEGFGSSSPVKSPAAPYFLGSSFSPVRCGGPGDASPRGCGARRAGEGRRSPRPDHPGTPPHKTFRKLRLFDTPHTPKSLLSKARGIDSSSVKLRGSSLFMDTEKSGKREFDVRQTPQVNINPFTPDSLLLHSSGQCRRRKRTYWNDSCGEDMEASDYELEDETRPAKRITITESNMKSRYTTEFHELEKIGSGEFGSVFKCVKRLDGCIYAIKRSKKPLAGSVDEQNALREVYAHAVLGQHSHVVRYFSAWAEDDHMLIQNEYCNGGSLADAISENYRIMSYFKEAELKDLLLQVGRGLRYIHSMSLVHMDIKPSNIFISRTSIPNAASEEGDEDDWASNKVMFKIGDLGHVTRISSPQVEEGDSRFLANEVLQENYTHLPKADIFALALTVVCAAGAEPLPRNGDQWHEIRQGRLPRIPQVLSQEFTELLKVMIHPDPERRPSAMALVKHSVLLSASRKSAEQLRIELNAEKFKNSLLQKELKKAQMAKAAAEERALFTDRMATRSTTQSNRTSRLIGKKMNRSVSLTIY
The conditions noted are these: ATP at Km; 30-minute pre-incubation; read-out: kinase inhibition in terms of IC50, WEE1. How it is done:
as §1, §2

For another experiment, the target named is T3, SYK (Homo sapiens, UniProt P43405).
T3 construct: purchased Nanosyn
The conditions noted are these: ATP at Km; 30-minute pre-incubation; read-out: kinase inhibition in terms of IC50, SYK. How it is done:
as §1, §2

For another experiment, the target named is T4, PAK1 (Homo sapiens, UniProt Q13153).
T4 construct: Nanosyn (contract laboratory that ran the panel)
T4 sequence (Q13153 whole entry): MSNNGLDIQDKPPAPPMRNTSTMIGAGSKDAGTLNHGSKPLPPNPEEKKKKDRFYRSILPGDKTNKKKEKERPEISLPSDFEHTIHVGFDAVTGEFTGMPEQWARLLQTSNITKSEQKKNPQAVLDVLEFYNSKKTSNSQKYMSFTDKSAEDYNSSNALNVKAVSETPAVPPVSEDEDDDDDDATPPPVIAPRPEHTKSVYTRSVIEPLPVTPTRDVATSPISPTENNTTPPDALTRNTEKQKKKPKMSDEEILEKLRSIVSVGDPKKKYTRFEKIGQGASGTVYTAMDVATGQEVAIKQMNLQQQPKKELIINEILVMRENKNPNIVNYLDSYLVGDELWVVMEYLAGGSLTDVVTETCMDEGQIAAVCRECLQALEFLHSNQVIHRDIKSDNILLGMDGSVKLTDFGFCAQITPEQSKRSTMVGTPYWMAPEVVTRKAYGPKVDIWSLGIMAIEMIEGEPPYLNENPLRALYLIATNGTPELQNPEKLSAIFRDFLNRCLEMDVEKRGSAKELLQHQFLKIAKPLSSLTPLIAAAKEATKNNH
The conditions noted are these: ATP at Km; 30-minute pre-incubation; read-out: kinase inhibition in terms of IC50, PAK1. The protocol:
as §1, §2

The next experiment deals with T5, RIPK2 (Homo sapiens, UniProt O43353).
T5 construct: purchased Nanosyn
T5 sequence (O43353 whole entry): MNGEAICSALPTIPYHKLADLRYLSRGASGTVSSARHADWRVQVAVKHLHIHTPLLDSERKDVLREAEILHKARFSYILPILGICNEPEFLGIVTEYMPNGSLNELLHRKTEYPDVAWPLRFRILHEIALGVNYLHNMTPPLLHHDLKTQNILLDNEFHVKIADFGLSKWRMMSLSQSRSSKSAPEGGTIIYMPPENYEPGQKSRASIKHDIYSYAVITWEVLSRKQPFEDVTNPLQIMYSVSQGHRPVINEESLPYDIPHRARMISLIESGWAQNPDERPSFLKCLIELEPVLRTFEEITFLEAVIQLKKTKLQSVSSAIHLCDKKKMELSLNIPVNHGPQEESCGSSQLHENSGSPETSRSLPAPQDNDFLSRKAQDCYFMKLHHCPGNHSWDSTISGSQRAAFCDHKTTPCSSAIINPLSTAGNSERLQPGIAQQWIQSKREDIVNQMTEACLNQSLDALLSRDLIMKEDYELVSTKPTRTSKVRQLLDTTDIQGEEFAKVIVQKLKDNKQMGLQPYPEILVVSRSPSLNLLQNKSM
To be noted: ATP at Km; 30-minute pre-incubation; read-out: kinase inhibition in terms of IC50, RIPK2. The protocol: as §1, §2

The next experiment concerns the target T6, RIPK1 (Homo sapiens, UniProt Q13546).
T6 construct: purchased Nanosyn
T6 sequence (Q13546 1-671): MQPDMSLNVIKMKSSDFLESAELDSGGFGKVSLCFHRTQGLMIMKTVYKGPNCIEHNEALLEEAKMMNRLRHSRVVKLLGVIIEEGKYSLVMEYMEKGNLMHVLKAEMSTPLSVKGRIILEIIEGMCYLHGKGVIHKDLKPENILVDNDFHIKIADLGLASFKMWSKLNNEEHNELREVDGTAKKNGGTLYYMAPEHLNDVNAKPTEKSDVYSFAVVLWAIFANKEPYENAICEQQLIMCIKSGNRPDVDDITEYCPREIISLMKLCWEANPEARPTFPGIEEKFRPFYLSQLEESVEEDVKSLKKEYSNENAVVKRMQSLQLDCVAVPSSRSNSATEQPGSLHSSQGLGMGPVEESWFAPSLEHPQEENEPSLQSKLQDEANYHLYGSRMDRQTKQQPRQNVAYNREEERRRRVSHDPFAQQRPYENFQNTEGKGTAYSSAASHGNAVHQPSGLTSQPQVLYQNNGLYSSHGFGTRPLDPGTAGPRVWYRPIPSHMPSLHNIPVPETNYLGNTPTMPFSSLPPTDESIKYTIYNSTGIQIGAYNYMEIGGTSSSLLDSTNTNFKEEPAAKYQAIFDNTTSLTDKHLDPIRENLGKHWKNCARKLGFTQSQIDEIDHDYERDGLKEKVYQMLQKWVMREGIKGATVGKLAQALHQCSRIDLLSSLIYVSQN
To be noted: ATP at Km; 30-minute pre-incubation; read-out: kinase inhibition in terms of IC50, RIPK1. The protocol:
as §1, §2

In the next experiment the target is T7, TYRO3 (Homo sapiens, UniProt Q06418).
T7 construct: purchased Nanosyn
T7 sequence (Q06418 41-890): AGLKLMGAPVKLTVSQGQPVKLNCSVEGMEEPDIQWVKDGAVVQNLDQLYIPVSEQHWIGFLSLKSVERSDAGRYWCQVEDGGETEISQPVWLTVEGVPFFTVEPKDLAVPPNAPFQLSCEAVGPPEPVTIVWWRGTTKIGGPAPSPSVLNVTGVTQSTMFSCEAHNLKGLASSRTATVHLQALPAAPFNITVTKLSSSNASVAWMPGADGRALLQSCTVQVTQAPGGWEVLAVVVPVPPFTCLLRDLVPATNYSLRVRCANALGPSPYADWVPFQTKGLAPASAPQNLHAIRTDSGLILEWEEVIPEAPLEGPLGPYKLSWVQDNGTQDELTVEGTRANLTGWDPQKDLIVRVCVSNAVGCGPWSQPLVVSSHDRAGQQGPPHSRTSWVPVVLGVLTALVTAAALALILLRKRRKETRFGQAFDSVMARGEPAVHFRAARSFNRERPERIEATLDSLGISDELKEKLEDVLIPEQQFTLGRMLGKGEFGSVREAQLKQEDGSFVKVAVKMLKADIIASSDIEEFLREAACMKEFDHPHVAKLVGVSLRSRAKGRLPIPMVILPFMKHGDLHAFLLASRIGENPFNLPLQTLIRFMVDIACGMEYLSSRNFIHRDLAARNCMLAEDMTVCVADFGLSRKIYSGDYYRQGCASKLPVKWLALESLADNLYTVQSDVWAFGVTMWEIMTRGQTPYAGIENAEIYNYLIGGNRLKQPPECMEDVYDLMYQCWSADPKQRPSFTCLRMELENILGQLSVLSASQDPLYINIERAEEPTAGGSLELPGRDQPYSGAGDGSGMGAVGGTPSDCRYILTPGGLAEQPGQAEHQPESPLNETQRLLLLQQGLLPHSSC
The conditions noted are these: ATP at Km; 30-minute pre-incubation; read-out: kinase inhibition in terms of IC50, TYRO3. The protocol: as §1, §2

In another experiment the target is T8, TAK1-TAB1 (Homo sapiens, UniProt O43318).
T8 construct: purchased Nanosyn
T8 sequence (O43318 with tags, fused parts or gaps limits assumed): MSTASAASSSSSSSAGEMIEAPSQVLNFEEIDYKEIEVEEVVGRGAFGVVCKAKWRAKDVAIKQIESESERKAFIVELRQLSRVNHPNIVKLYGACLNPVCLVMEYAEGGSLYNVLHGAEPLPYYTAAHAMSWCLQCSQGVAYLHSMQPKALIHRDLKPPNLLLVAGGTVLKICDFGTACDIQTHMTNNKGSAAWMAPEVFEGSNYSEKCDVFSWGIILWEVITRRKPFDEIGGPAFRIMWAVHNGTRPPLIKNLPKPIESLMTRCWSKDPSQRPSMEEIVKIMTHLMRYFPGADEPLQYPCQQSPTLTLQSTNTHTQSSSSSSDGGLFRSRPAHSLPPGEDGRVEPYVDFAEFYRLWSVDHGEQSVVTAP
To be noted: ATP at Km; 30-minute pre-incubation; read-out: kinase inhibition in terms of IC50, TAK1-TAB1. The protocol:
as §1, §2

As usually defined, the IC50 is the concentration needed to halve the response being measured. With `O=C(Nc1cccc(NC(=O)c2ccn(-c3ccc(F)cc3)n2)c1)c1cccc(-c2ccn[nH]2)n1` [Ex84, N-(3-(1-(4-fluorophenyl)-1H-pyrazole-3-carboxamido)phenyl)-6-(1H-pyrazol-5-yl)picolinamide], the 50% inhibitory concentration (IC50) at PLK4 is not below 10 µM.

For the compound `CNc1ncc2c(C)c(-c3cc(NC(=O)c4ccn(-c5ccc(F)cc5)n4)ccc3Cl)c(=O)n(C)c2n1` [Ex69, N-(4-chloro-3-(5,8-dimethyl-2-(methylamino)-7-oxo-7,8-dihydropyrido[2,3-d]pyrimidin-6-yl)phenyl)-1-(4-fluorophenyl)-1H-pyrazole-3-carboxamide], the half-inhibitory concentration (IC50) on WEE1 was not below 10 µM.

For the compound `CS(=O)(=O)c1cc(C(=O)Nc2cc(Br)c(F)c(C(=O)c3c[nH]c4ncc(Cl)cc34)c2F)nn1-c1ccc(F)cc1` [Ex70, N-(5-bromo-3-(5-chloro-1H-pyrrolo[2,3-b]pyridine-3-carbonyl)-2,4-difluorophenyl)-1-(4-fluorophenyl)-5-(methylsulfonyl)-1H-pyrazole-3-carboxamide], the IC50 at WEE1 was not below 10 µM.

As to `CC(=O)Nc1nc(C)c(-c2ccnc(Nc3cc(NC(=O)c4ccn(-c5ccc(F)cc5)n4)ccc3C)n2)s1` [Ex86, N-(3-((4-(2-acetamido-4-methylthiazol-5-yl)pyrimidin-2-yl)amino)-4-methylphenyl)-1-(4-fluorophenyl)-1H-pyrazole-3-carboxamide], the IC50 on PLK4 is less than 0.5 µM.

Regarding `CNc1ncc2cc(-c3cc(NC(=O)c4ccn(-c5ccc(F)cc5)n4)ccc3C)c(=O)n(C)c2n1` [Ex74, 1-(4-fluorophenyl)-N-(4-methyl-3-(8-methyl-2-(methylamino)-7-oxo-7,8-dihydropyrido[2,3-d]pyrimidin-6-yl)phenyl)-1H-pyrazole-3-carboxamide], the IC50 on SYK was 1 to 10 µM; on WEE1 it was not below 10 µM; at PAK1, not below 10 µM.

In the case of `Cn1cnc2ccc(Oc3ccc(F)c(NC(=O)c4ccn(-c5ccc(F)cc5)n4)c3)cc2c1=O` [Ex80, N-(2-fluoro-5-((3-methyl-4-oxo-3,4-dihydroquinazolin-6-yl)oxy)phenyl)-1-(4-fluorophenyl)-1H-pyrazole-3-carboxamide], the half-inhibitory concentration (IC50) at RIPK2 and at RIPK1 was not below 10 µM in each case.

Consider `Nc1ncnc2scc(C#Cc3cccc(NC(=O)c4ccn(-c5ccc(F)cc5)n4)c3)c12` [Ex81, N-(3-((4-aminothieno[2,3-d]pyrimidin-5-yl)ethynyl)phenyl)-1-(4-fluorophenyl)-1H-pyrazole-3-carboxamide], for which, at SYK, the IC50 lay within 1 to 10 µM.

With `CNc1ncc2cc(-c3c(Cl)ccc(NC(=O)c4ccn(-c5ccc(F)cc5)n4)c3Cl)c(=O)n(C)c2n1` [Ex82, N-(2,4-dichloro-3-(8-methyl-2-(methylamino)-7-oxo-7,8-dihydropyrido[2,3-d]pyrimidin-6-yl)phenyl)-1-(4-fluorophenyl)-1H-pyrazole-3-carboxamide], on WEE1, the half-maximal inhibitory concentration (IC50) is not below 10 µM.

On to `COc1cc2nccc(Oc3ccc(NC(=O)c4cc(SC)n(-c5ccc(F)cc5)n4)c(F)c3)c2cc1OC` [Ex77, N-(4-((6,7-dimethoxyquinolin-4-yl)oxy)-2-fluorophenyl)-1-(4-fluorophenyl)-5-(methylthio)-1H-pyrazole-3-carboxamide], for which the 50% inhibitory concentration (IC50) is not below 10 µM at SYK and less than 0.5 µM at TYRO3.

Take `COc1cc2nccc(Oc3ccc(NC(=O)c4ccn(-c5ccc(F)cc5)n4)c(F)c3)c2cc1OC` [Ex78, N-(4-((6,7-dimethoxyquinolin-4-yl)oxy)-2-fluorophenyl)-1-(4-fluorophenyl)-1H-pyrazole-3-carboxamide]: the IC50 on SYK is 1 to 10 µM; at TYRO3 it was less than 0.5 µM.

For the compound `Cc1ccc(NC(=O)c2ccn(-c3ccc(F)cc3)n2)cc1Oc1ccnc2[nH]ccc12` [Ex83, N-(3-((1H-pyrrolo[2,3-b]pyridin-4-yl)oxy)-4-methylphenyl)-1-(4-fluorophenyl)-1H-pyrazole-3-carboxamide], the half-inhibitory concentration (IC50) at TAK1-TAB1 is not below 10 µM.

For the origin of these results see patent US20240400577A1, “MODULATORS OF PROTEIN KINASES” (VIBLIOME THERAPEUTICS, LLC, priority 2021, published 2024).
